In data set [1] the target is T1, PSMA (Homo sapiens, UniProt Q04609).
T1 construct: endogenous in cells; host or cells: LNCaP prostate cancer cells
Put plainly: In vitro competition binding assay using LNCaP cells and [18F]DCFPyL as radioligand. As to conditions: displacement of [18F]DCFPyL from LNCaP cells, n = 3; read-out: PSMA binding affinity (Ki). How it is done: The binding assays were conducted following previously published procedures using LNCaP cells and [^18F]DCFPyL as the radioligand [17]-[19]. Briefly, LNCaP cells (400,000/well) were plated onto a 24-well poly-D-lysine coated plate for 48 h. Growth media was removed and replaced with HEPES buffered saline (50 mM HEPES, pH 7.5, 0.9% sodium chloride) and the cells were incubated for 1 h at 37 °C. [^18F]DCFPyL (0.1 nM) was added to each well (in triplicate) containing various concentrations (0.5 mM - 0.05 nM) of tested nonradioactive Ga-complexed compounds. Non-specific binding was determined in the presence of 10 µM non-radiolabeled DCFPyL. The assay mixtures were further incubated for 1 h at 37 °C with gentle agitation. Then, the buffer and radioligand were removed, and cells were washed twice with cold HEPES buffered saline. To harvest the cells, 400 µL of 0.25 % trypsin solution was added to each well. Radioactivity was measured on a PerkinElmer (Waltham, MA) Wizard2 2480 automatic gamma counter. Data analyses of Ki were performed using the nonlinear regression algorithm of GraphPad (San Diego, CA) Prism 7 software.
A general note: In a radioligand displacement assay an active substance lowers the binding of a labelled ligand.

The subject of data set [2] is LNCaP tumor-bearing mice. Put plainly: Ex vivo biodistribution of 68Ga-labeled ligands in LNCaP tumor-bearing NSG mice. As to conditions: 1 h post-injection.

T1 sequence (Q04609 whole entry): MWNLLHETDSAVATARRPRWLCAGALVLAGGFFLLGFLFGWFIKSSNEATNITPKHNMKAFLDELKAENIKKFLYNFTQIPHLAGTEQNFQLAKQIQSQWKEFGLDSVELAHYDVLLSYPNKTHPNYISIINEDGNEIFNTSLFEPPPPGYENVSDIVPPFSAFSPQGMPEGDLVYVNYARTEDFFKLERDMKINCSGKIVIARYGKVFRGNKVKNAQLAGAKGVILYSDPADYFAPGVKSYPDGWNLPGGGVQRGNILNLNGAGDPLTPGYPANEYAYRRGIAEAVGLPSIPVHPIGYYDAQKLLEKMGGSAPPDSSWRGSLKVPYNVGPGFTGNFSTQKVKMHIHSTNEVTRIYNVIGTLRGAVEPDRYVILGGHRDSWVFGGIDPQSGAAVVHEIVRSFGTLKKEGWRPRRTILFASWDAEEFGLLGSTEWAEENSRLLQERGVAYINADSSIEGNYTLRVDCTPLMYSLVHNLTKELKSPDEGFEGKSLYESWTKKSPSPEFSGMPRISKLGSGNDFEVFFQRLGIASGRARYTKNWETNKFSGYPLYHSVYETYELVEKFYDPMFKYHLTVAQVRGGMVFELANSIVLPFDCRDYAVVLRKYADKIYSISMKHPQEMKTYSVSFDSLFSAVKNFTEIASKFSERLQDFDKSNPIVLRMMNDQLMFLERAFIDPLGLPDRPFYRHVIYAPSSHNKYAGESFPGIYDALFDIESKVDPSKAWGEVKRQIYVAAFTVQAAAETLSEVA

In general, Ki refers to the dissociation constant of the complex between target and ligand, obtained from inhibition or displacement. `O=C([O-])CN1CCN(CC(=O)[O-])CCN(CC(=O)NCC2CCC(C(=O)NC(Cc3c4ccccc4cc4ccccc34)C(=O)NCCCCC(NC(=O)NC(CCCC(=O)O)C(=O)O)C(=O)O)CC2)CCN(CC(=O)[O-])CC1.[Ga+3]` (stereo not drawn) [Ga-HTK03149]: the Ki in data set [1] amounted to 6.99 ± 0.8 nM.

In the case of `O=C([O-])CN1CCN(CC(=O)[O-])CCN(CC(=O)NCC2CCC(C(=O)NC(Cc3c4ccccc4cc4ccccc34)C(=O)NCCCCC(NC(=O)NC(CCCCC(=O)O)C(=O)O)C(=O)O)CC2)CCN(CC(=O)[O-])CC1.[68Ga+3]` (single isomer, unassigned) [[^68Ga]Ga-HTK03189A], the “Higher tumor uptake than [68Ga]Ga-HTK03189B” value in data set [2] is ~ 2 fold. Also, in data set [2] (listed as [68Ga]Ga-HTK03189A), the Adrenal glands uptake is 0.35 ± 0.06 %IA/g, the Blood uptake worked out at 0.89 ± 0.22 %IA/g, the “Blood:Salivary gland uptake ratio” value stood at 4.39 ± 0.44 and the Bone uptake turned out to be 0.12 ± 0.03 %IA/g. In data set [2] (listed as [68Ga]Ga-HTK03189A), the Brain uptake was 0.02 ± 0.00 %IA/g, the Fat uptake amounted to 0.18 ± 0.11 %IA/g, the Heart uptake was found to be 0.24 ± 0.06 %IA/g and the Intestines uptake was 0.31 ± 0.18 %IA/g. In data set [2] (listed as [68Ga]Ga-HTK03189A), this compound registered a Kidneys uptake of 2.65 ± 0.69 %IA/g, a Lacrimal glands uptake of 0.18 ± 0.18 %IA/g, a Liver uptake of 0.34 ± 0.15 %IA/g and a Lungs uptake of 0.68 ± 0.12 %IA/g. Besides, in data set [2] (listed as [68Ga]Ga-HTK03189A), the Muscle uptake was 0.14 ± 0.04 %IA/g, the Pancreas uptake is 0.15 ± 0.04 %IA/g, the Salivary glands uptake is recorded as 0.20 ± 0.04 %IA/g and the Spleen uptake worked out at 0.21 ± 0.10 %IA/g. In data set [2] (listed as [68Ga]Ga-HTK03189A), this compound displayed a Stomach uptake of 0.11 ± 0.06 %IA/g, a Testes uptake of 0.23 ± 0.11 %IA/g, a Thyroid uptake of 0.25 ± 0.05 %IA/g and a Tumor uptake of 2.10 ± 0.28 %IA/g. Further, in data set [2] (listed as [68Ga]Ga-HTK03189A), the “Tumor:Blood uptake ratio” value was found to be 2.41 ± 0.29, the “Tumor:Kidney uptake ratio” value came to 0.83 ± 0.21, the “Tumor:Muscle uptake ratio” value was determined as 16.5 ± 4.08 and the “Tumor:Salivary gland uptake ratio” value was 10.5 ± 1.07. In data set [2] (listed as [^68Ga]Ga-HTK0189A), this compound returned a Tumor uptake of 2.10±0.28 %IA/g.

These data come from PMC9475448, “What a difference a methylene makes: replacing Glu with Asp or Aad in the Lys-urea-Glu pharmacophore of PSMA-targeting radioligands to reduce kidney and salivary gland uptake” (Theranostics, 2022).
